Experiment [1] relates to astrocyte/neuron co-culture. Nature of the experiment: Brain cell damage induced by hydrogen peroxide treatment (LDH assay). The format is cell-based. The settings on record: Rattus norvegicus, hydrogen peroxide (250 μM), 24 hours, read-out: 50% inhibition concentration against cell damage in entire co-culture system (EC50 value). A digest of the protocol: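 Rat primary cortical/hippocampal co-cultures were used 8–9 days after plating neurons (E18.5) on neonatal astrocyte layers. Test substance was added together with 250 μM hydrogen peroxide, and cells were analysed 24 h later. LDH release gave EC50 for protection of the whole co-culture, and microscopy of neuronal cell bodies and processes gave neuroprotection.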

Experiment [2] relates to neurons in astrocyte/neuron co-culture. The experiment is described as follows: Brain cell damage induced by hydrogen peroxide treatment (neuroprotective effect, microscope observation). Type of experiment: cell-based. The settings on record: Rattus norvegicus, hydrogen peroxide (250 μM), 24 hours, read-out: Concentration for complete inhibition of neuronal death. The protocol:
The brain was removed from 1 to 2 day old Wistar rats (Charles River) or Sprague-Dawley (IGS) rats (Charles River), and the cerebral cortex including the hippocampus was excised under ice cooling. After this cerebral cortex was minced, it was digested with papain solution (9 U/ml) containing DNase I (30 U/ml) at 37 degrees Celsius for 15 minutes, dispersing the cells. After further carrying out mechanical dispersing by pipetting, it was passed through a cell strainer with a pore size of 70 μm, and a cell suspension was obtained. Cells derived from 1.4 cerebra were seeded on 150 mm tissue culture dish (Iwaki Glass), and primary culture was carried out at 37 degrees Celsius and 5% CO2 using a D-MEM medium (Invitrogen) containing 10% heat-inactivated fetal calf serum (JRH). One day after the start of the culture, the nonadherent cells were removed, and the primary cultured astrocytes were obtained by continuing the culture for 4 to 5 further days. The primary cultured astrocytes were dispersed by trypsin treating, suspended in cryopreservation solution, and cryopreserved.
After thawing the cryopreserved primary cultured astrocytes, they were seeded on tissue culture plates (Iwaki Glass), and a confluent astrocyte layer was produced by a further 7 days of secondary culture using a D-MEM medium containing 10% heat-inactivated fetal calf serum. Neurons to be used in the co-culture with the astrocyte layer were obtained from fetal rat cerebrum. Briefly, brains were removed from Wistar rats (Charles River) or Sprague-Dawley (IGS) rats (Charles River) of embryonic age 18.5 days, and the cerebral cortex including the hippocampus was excised under ice cooling. After this cerebral cortex was minced, it was digested in papain solution (9 U/ml) containing DNase I (30 U/ml) at 37 degrees Celsius for 15 minutes, dispersing the cells. After further carrying out mechanical dispersing by pipetting, it was passed through a cell strainer with a pore size of 70 μm, and a cell suspension was obtained. This cell suspension was plated at a density of 1.3×10^5 cells/cm^2 on the astrocyte layer, and a co-culture was carried out using D-MEM/F-12 medium (Invitrogen) containing 10% heat-inactivated fetal calf serum and 5% horse serum (Invitrogen). 2 days after the start of the co-culture, cells were treated for 24 hours with 10 μM cytosine arabinoside in order to suppress the excessive cell proliferation of microglia and the like. 8 to 9 days after the start of the co-culture, cells were used for the test. Additionally, using one portion of the cells, immunofluorescent staining and nuclear staining was carried out with astrocyte recognizing antibodies (anti-GFAP) and neuron recognizing antibodies (anti-MAP2), in order to confirm that the present culture system is a co-culture system of astrocytes and neurons.
An astrocyte/neuron co-culture cultured on a 96 well plate was used in the test. A predetermined concentration of the test substance and hydrogen peroxide (250 μM) was simultaneously added to the cell culture in each well with continuing cultivation, and analysis was done 24 hours after this treatment. Using an LDH Cytotoxicity Detection Kit (Takara Bio), analysis was carried out in accordance with the included instruction manual, and the damage to the entire co-culture system by the hydrogen peroxide treatment and the protective effect (EC 50 value) of the test substance was evaluated. Further, the cell bodies and the neuronal processes of the neurons were observed by microscope, and the neuroprotective effect was evaluated.

In experiment [3] the test system is rat brain homogenate (lipid peroxide production). Nature of the experiment: Antioxidant activity test (rat brain homogenate autoxidation test). The settings on record: lipid peroxide production suppression, 2 hours at 37 degrees Celsius, thiobarbituric acid method. Type of experiment: biochemical. As for the experimental part: The cerebrum was removed from 7 to 11 week old male Wistar rats (Nihon Ikagaku) or male Sprague-Dawley (IGS) rats (Charles River), physiological saline was added, and a 20% brain homogenate was made. 4 μl of test compound dissolved in DMSO was mixed with 200 μl of brain homogenate and 200 μl of PBS (−) (diluted 100 times), incubated for 2 hours at 37 degrees Celsius and shaken at a rate of 160 times per minute, thereby producing a lipid peroxide. After cooling for 5 minutes, the produced lipid peroxide was measured as a thiobarbituric acid reactive substance by using the thiobarbituric acid method. Briefly, 100 μl of 8.1% dodecyl sulfate, 750 μl of 20% acetic acid adjusted to a pH of 3.5, and 750 μl of 0.8% thiobarbituric acid were added, and boiled for 60 minutes, and then cooled. Next, 500 μl of distilled water and 2.5 ml of N-butanol/pyridine (15:1) were added and after 5 minutes of shaking, the supernatant was taken after centrifuging for 10 minutes at 3000 rpm, and the absorbance at 532 nm was measured. The number of examples was 2 examples. Calculation was done of the (absorbance at each concentration/absorbance of a solvent control)×100, and after logit transformation, the lipid peroxide production suppression effect (IC 50 value) was calculated as an indicator of antioxidant activity.

By IC50 is commonly meant the concentration that gives 50% inhibition. Take `Cc1cccc(N2CCN(c3nc(N4CCOCC4)c(F)c(N4CCOCC4)n3)CC2)c1C` [Compound 105, 5-fluoro-4,6-dimorpholino-2-[4-(2,3-xylyl)piperazin-1-yl]pyrimidine]: the EC50 in experiment [1] came out at 290 nM. In experiment [2], the EC100 turned out to be 1 µM. This compound also gave an IC50 in experiment [3] of 2770 nM.
For `CN(C)c1nc(N2CCOCC2)c(F)c(N2CCN(c3ccccc3Cl)CC2)n1` [Compound 110, 4-[4-(2-chlorophenyl)piperazin-1-yl]-2-dimethylamino-5-fluoro-6-morpholinopyrimidine], in that order: 330 nM, 1 µM and 3020 nM.
In the case of `Fc1c(N2CC=C(c3ccccc3)CC2)nc(N2CCOCC2)nc1N1CCOCC1` [Compound 121, 5-fluoro-2,4-dimorpholino-6-(4-phenyl-1,2,5,6-tetrahydropyridin-1-yl)pyrimidine], the EC50 in experiment [1] is 320 nM. For the same compound, the EC100 in experiment [2] is 1 µM. In experiment [3], the half-inhibitory concentration (IC50) amounted to 5050 nM.
The matching figures for `Fc1c(N2CCOCC2)nc(N2CCc3ccccc3C2)nc1N1CCOCC1` [Compound 122, 5-fluoro-4,6-dimorpholino-2-(1,2,3,4-tetrahydro-2H-isoquinolin-2-yl)pyrimidine]: 290 nM, 1 µM and 5480 nM.
The matching figures for `COc1ccc(C=Cc2nc(N3CCOCC3)c(N)c(N3CCOCC3)n2)cc1` [Compound 131, 5-amino-2-[2-(4-methoxyphenyl)vinyl]-4,6-dimorpholinopyrimidine]: 8990 nM, 10 µM and 7040 nM.
The matching figures for `Cn1c(/C=C/c2nc(N3CCOCC3)c(N)c(N3CCOCC3)n2)cc2sccc21` [Compound 133, 5-amino-2-[2-(4-methylthiopheno[1,2-b]pyrrol-5-yl)vinyl]-4,6-dimorpholinopyrimidine]: 2030 nM, 30 µM and 1040 nM.
In the case of `Nc1c(N2CCOCC2)nc(/C=C/c2ccc(N3CCCCC3)cc2)nc1N1CCOCC1` [Compound 136, 5-amino-4,6-dimorpholino-2-[2-(4-piperidinophenyl)vinyl]pyrimidine], the EC50 in experiment [1] is 730 nM. In experiment [2], the EC100 amounted to 3 µM. Besides, the IC50 in experiment [3] worked out at 1690 nM.
For the compound `CNc1nc(/C=C/c2ccc(OC)cc2)nc(N2CCOCC2)c1N` [Compound 139, 5-amino-2-[2-(4-methoxyphenyl)vinyl]-4-methylamino-6-morpholinopyrimidine], in experiment [1], the EC50 worked out at 1150 nM. Further, the EC100 in experiment [2] was 3 µM. Half-maximal inhibition in experiment [3] (IC50) required 110 nM.
For `COc1ccc(/C=C/c2nc(N(C)C)c(N)c(N(C)C)n2)cc1` [Compound 140, 5-amino-4,6-bis(dimethylamino)-2-[2-(4-methoxyphenyl)vinyl]pyrimidine], in that order: 5150 nM, 10 µM and 550 nM.
Take `Nc1ccc(N2CCN(c3nc(N4CCOCC4)nc(N4CCOCC4)c3F)CC2)cc1` [Compound 146, 4-[4-(4-aminophenyl)piperazin-1-yl]-5-fluoro-2,6-dimorpholinopyrimidine]: the EC50 in experiment [1] was determined as 960 nM. The EC100 in experiment [2] amounted to 3 µM. In experiment [3], this compound returned an IC50 of 1910 nM.
Turning to `Cc1ccc(N2CCN(c3nc(N4CCNCC4)nc(N4CCOCC4)c3F)CC2)cc1` [Compound 149, 5-fluoro-4-[4-(4-methylphenyl)piperazin-1-yl]-6-morpholino-2-(1-piperazinyl)pyrimidine], in experiment [1], the EC50 was determined as 420 nM. The EC100 in experiment [2] came to 10 µM. Besides, the IC50 in experiment [3] came out at 9750 nM.
For `COc1ccc(/C=C/c2nc(N3CCNCC3)c(N)c(N3CCOCC3)n2)cc1` [Compound 170, 5-amino-2-[2-(4-methoxyphenyl)vinyl]-4-morpholino-6-(1-piperazinyl)pyrimidine], the EC50 in experiment [1] is 990 nM. Moreover, the EC100 in experiment [2] is 3 µM. This compound returned a 50% inhibitory concentration (IC50) in experiment [3] of 3100 nM.
`COc1ccc(/C=C/c2nc(NCCN3CCNCC3)c(N)c(N3CCOCC3)n2)cc1` [Compound 173, 5-amino-2-[2-(4-methoxyphenyl)vinyl]-4-morpholino-6-[2-(1-piperazinyl)ethylamino]pyrimidine]: the EC50 in experiment [1] was determined as 4720 nM. Further, in experiment [2], the EC100 was determined as 30 µM. In experiment [3], the midpoint of inhibition, the IC50, lay at 2080 nM.
Regarding `COc1ccc(/C=C/c2nc(N3CCOCC3)c(N)c(N3CCN(CCN(C)C)CC3)n2)cc1` [Compound 175, 5-amino-2-[2-(4-methoxyphenyl)vinyl]-4-[4-(2-dimethylaminoethyl-piperazin-1-yl)]-6-morpholinopyrimidine], in experiment [1], the EC50 turned out to be 3240 nM. Moreover, in experiment [2], the EC100 was determined as 10 µM. The same compound had an IC50 in experiment [3] of 2080 nM.
Consider `COc1ccc(/C=C/c2nc(N3CCOCC3)c(N)c(N3CCN(C(=O)CN)CC3)n2)cc1` [Compound 176, 5-amino-4-(4-aminomethylcarbonylpiperazin-1-yl)-2-[2-(4-methoxyphenyl)vinyl]-6-morpholinopyrimidine], for which the EC50 in experiment [1] was found to be 2740 nM. Also, the EC100 in experiment [2] was 10 µM. Moreover, the IC50 in experiment [3] stood at 2160 nM.
Regarding `COc1ccc(/C=C/c2nc(N3CCOCC3)c(N)c(N3CCC(N)CC3)n2)cc1` [Compound 196, 5-amino-4-(4-aminopiperidin-1-yl)-2-[2-(4-methoxyphenyl)vinyl]-6-morpholinopyrimidine], in experiment [1], the EC50 was 3780 nM. In experiment [2], the EC100 came to 10 µM. Besides, the IC50 in experiment [3] was determined as 2730 nM.
As to `COc1ccc(/C=C/c2nc(NCC(=O)OC(C)(C)C)c(N)c(N3CCOCC3)n2)cc1` [Compound 197, 5-amino-4-(4-tert-butoxycarbonylmethylamino)-2-[2-(4-methoxyphenyl)vinyl]-6-morpholinopyrimidine], the EC50 in experiment [1] was 550 nM. Further, the EC100 in experiment [2] was 3 µM. In experiment [3], this compound had an IC50 of 990 nM.
The matching figures for `COc1ccc(/C=C/c2nc(N3CCOCC3)c(N)c(N(C)C3CCN(C)CC3)n2)cc1` [Compound 198, 5-amino-2-[2-(4-methoxyphenyl)vinyl]-4-[N-methyl-N-(1-methylpiperidin-4-yl)amino]-6-morpholinopyrimidine]: 3740 nM, 10 µM and 1040 nM.
For `COc1ccc(CCc2nc(N3CCNCC3)c(N)c(N3CCOCC3)n2)cc1` [Compound 199, 5-amino-2-[2-(4-methoxyphenyl)ethyl]-4-(1-piperazinyl)-6-morpholinopyrimidine], in that order: 3050 nM, 10 µM and 8120 nM.
For `COc1ccc(/C=C/c2nc(N3CCOCC3)c(F)c(N3CCOCC3)n2)cc1` [Compound 216, 5-fluoro-2-[2-(4-methoxyphenyl)vinyl]-4,6-dimorpholinopyrimidine], in that order: 730 nM, 3 µM and 860 nM.

Values taken from US8563715B2, “Pyrimidine derivative having cell protecting effect and uses thereof” (Zenyaku Kogyo Kabushikikaisha, priority 2008, dated 2013).
